For experiment [1], the target named is Acetylcholinesterase (Homo sapiens, UniProt P22303). Kind of experiment: Inhibition of human AchE-induced amyloid beta (1 to 40) aggregation after 48 hrs by thioflavin T fluorescence spectroscopic method.
Another experiment concerns the target Cholinesterase (Homo sapiens, UniProt P06276). Kind of experiment: Inhibition of BuChE (unknown origin).
For experiment [2], the target named is T1, Acetylcholinesterase (Rattus norvegicus, UniProt P37136).
T1 sequence (P37136 whole entry): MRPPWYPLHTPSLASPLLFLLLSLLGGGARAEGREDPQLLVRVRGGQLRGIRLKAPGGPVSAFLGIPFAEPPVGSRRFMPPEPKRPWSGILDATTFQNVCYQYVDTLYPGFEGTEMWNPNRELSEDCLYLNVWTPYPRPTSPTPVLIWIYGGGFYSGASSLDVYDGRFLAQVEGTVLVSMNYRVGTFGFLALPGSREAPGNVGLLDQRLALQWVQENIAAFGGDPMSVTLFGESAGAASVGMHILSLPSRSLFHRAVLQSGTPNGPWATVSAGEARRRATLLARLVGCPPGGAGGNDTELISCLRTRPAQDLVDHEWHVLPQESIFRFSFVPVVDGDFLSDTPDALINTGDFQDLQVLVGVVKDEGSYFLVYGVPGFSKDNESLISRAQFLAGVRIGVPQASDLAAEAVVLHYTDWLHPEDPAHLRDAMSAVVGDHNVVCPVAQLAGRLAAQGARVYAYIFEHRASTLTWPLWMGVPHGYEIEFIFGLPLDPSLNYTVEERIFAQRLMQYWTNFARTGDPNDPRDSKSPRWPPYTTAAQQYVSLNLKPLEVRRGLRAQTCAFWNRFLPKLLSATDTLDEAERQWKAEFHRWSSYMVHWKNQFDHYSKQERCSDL
In words: Inhibition of rat cortex AchE using acetylthiocholine iodide as substrate by Ellman's method. For orientation: DTNB colorimetry detects thiols as they appear.

A short description of experiment [3]: Selectivity index, ratio of IC50 for human serum BChE to IC50 for rat cortex AchE.
Experiment [4] addresses T2, Acetylcholinesterase (Bos taurus) (UniProt P23795).
T2 sequence (whole entry): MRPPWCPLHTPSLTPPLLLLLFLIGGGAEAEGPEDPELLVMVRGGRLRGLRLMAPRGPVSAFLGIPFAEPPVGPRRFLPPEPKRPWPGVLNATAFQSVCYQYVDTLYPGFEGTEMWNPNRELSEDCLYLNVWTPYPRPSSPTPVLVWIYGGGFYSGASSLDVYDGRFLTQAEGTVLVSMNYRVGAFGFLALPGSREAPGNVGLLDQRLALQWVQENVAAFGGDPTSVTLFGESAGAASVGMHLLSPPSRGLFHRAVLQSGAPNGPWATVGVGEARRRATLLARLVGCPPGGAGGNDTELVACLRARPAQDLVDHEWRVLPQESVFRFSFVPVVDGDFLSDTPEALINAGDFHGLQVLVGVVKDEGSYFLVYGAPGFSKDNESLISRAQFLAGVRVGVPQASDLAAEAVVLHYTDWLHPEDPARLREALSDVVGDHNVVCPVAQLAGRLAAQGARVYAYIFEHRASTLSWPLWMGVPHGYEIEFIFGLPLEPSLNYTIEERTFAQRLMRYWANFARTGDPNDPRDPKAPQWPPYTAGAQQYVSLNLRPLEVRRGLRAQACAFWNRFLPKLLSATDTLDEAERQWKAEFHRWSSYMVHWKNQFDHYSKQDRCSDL
Kind of experiment: Displacement of propidium iodide from bovine erythrocyte AchE at 1 uM incubated for 6 hrs followed by addition of propidium iodide and measured after 15 mins by thioflavin T-fluorescence assay.

Experiment [5] addresses T2, Acetylcholinesterase (Bos taurus). In words: Displacement of propidium iodide from bovine erythrocyte AchE at 3 uM incubated for 6 hrs followed by addition of propidium iodide and measured after 15 mins by thioflavin T-fluorescence assay.
For experiment [6] the target is unchanged. In words: Displacement of propidium iodide from bovine erythrocyte AchE at 0.3 uM incubated for 6 hrs followed by addition of propidium iodide and measured after 15 mins by thioflavin T-fluorescence assay.
For experiment [7], the target named is T3, Acetylcholinesterase (Bos taurus, UniProt P23795).
T3 sequence (P23795 whole entry): T2 sequence (whole entry)
In words: Inhibition of bovine erythrocyte AchE using acetylthiocholine as substrate by Ellman's method.

Chain of Acetylcholinesterase (Homo sapiens, UniProt P22303) (P22303 whole entry): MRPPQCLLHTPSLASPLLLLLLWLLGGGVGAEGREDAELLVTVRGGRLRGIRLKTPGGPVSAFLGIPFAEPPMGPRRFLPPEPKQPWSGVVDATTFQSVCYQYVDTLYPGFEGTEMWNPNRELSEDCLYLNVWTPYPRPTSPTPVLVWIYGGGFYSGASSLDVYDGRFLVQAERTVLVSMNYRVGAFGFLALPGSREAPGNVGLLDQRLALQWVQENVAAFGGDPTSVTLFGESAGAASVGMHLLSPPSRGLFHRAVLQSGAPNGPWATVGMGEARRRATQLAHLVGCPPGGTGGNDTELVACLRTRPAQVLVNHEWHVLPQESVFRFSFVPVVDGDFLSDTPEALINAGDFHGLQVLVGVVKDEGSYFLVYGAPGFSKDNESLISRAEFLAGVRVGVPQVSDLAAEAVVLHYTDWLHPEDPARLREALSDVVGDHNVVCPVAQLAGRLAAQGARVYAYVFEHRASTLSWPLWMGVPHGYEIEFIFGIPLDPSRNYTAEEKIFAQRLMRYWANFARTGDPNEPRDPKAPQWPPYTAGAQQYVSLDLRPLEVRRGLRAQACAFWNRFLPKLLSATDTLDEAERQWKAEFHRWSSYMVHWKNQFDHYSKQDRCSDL
Chain of Cholinesterase (P06276 whole entry): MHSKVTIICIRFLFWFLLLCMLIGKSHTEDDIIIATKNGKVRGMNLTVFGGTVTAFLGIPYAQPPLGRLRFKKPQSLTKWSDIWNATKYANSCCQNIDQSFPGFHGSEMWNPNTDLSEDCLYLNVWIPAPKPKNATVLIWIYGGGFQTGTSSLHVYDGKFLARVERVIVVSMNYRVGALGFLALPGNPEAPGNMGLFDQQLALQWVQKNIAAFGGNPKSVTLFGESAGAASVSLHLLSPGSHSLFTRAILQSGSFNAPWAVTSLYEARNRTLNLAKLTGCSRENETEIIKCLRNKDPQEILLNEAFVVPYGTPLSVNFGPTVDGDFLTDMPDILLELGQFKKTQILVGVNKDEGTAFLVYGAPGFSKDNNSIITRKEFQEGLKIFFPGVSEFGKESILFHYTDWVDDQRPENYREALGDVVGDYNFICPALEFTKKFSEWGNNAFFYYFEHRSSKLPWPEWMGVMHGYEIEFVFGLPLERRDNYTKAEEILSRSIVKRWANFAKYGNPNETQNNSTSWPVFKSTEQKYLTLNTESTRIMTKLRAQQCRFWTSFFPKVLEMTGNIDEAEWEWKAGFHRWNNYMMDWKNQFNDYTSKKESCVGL

In general, IC50 refers to the concentration needed to halve the response being measured. `O=C(CCCC1CCSS1)NCCCNc1c2c(nc3cc(Cl)ccc13)CCCC2` (stereo not given) returned an IC50 against Acetylcholinesterase [1] of 253 nM.

Regarding `Cc1c(C)c2c(c(C)c1O)CCC(C)(C(=O)NCCCCCCCCNc1c3c(nc4cc(Cl)ccc14)CCCC3)O2` (stereo not given), at Cholinesterase, the IC50 came to 54 nM. This counts as double-digit nanomolar.

On Acetylcholinesterase [2], `Clc1ccc2c(NCCCCCCCCNc3c4c(nc5ccccc35)CCCC4)c3c(nc2c1)CCCC3` displayed an IC50 of 0.07 nM. In experiment [3], the Ratio IC50 is 371.

One may read the inhibition as how much of the control response was suppressed. Low readings indicate a weak effect, high ones a strong effect. For `O=C(CCCCCCNc1c2c(nc3cc(Cl)ccc13)CCCC2)NCCc1c[nH]c2ccccc12`, the inhibition in experiment [4] was determined as 34%; in experiment [5], 35%; in experiment [6] it was 42%.

For the compound `O=C(CCCCCNc1c2c(nc3ccccc13)CCCC2)NCCc1c[nH]c2ccccc12`, the IC50 at Acetylcholinesterase [7] was 1 nM. Moreover, the inhibition in experiment [4] was found to be 34%; in experiment [5], 35%; in experiment [6], 42%.

Take `c1ccc2c(NCCCCCCCCNc3c4c(nc5c3CCCC5)CCCC4)c3c(nc2c1)CCCC3`: at Acetylcholinesterase [2], the IC50 turned out to be 0.2 nM. For the same compound, the Ratio IC50 in experiment [3] turned out to be 221.

On to `Clc1ccc2c(NCCCCCCCCCNc3c4c(nc5c3CCCC5)CCCC4)c3c(nc2c1)CCCC3`, for which, on Acetylcholinesterase [2], the IC50 was 0.3 nM. In addition, in experiment [3], the Ratio IC50 came to 647.

The values above are taken from ChEMBL document CHEMBL4004782, “A review on tacrine-based scaffolds as multi-target drugs (MTDLs) for Alzheimer's disease” (Eur J Med Chem, 2017).
